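All cell lines were grown in 96-well plates and treated with compound for 48 hours. At the GI50, growth is halved.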 The source made the active and inactive calls. No stated cut-off is given here; in the data, active = GI50 up to about 1.1 µM and inactive = higher.
How the values were obtained:
Assay in all cases: NCI anticancer screen, dose series, 48 h
SF-295 = test system: SF-295
M14 = test system: M14
LOX IMVI = test system: LOX IMVI
M19-MEL = test system: M19-MEL
SNB-75 = test system: SNB-75
SN12C = test system: SN12C
CAKI-1 = test system: CAKI-1
MOLT-4 = test system: MOLT-4
OVCAR-4 = test system: OVCAR-4
NCI-H23 = test system: NCI-H23
SW-620 = test system: SW-620
K562 = test system: K562
ACHN = test system: ACHN
TK-10 = test system: TK-10
HCT-15 = test system: HCT-15
SK-MEL-2 = test system: SK-MEL-2
UO-31 = test system: UO-31
SF-268 = test system: SF-268

| SMILES | GI50 (SF-295) | GI50 (M14) | GI50 (LOX IMVI) | GI50 (M19-MEL) | GI50 (SNB-75) | GI50 (SN12C) | GI50 (CAKI-1) | GI50 (MOLT-4) | GI50 (OVCAR-4) | GI50 (NCI-H23) | GI50 (SW-620) | GI50 (K562) | GI50 (ACHN) | GI50 (TK-10) | GI50 (HCT-15) [µM] | GI50 (SK-MEL-2) | GI50 (UO-31) | GI50 (SF-268) |
| --- | --- | --- | --- | --- | --- | --- | --- | --- | --- | --- | --- | --- | --- | --- | --- | --- | --- | --- |
| O=c1ccccc2cccc(O)c12 | > 100 µM (inactive) | > 100 µM (inactive) | > 100 µM (inactive) | > 100 µM (inactive) | > 100 µM (inactive) | > 100 µM (inactive) | > 100 µM (inactive) | > 100 µM (inactive) | > 100 µM (inactive) | > 100 µM (inactive) | > 100 µM (inactive) | > 100 µM (inactive) | > 100 µM (inactive) | > 100 µM (inactive) | > 100 | – | – | – |
| COc1cc(C2C(Cl)C(=O)N2NC(=O)c2ccc(N)cc2)ccc1O (configuration not stated) | 67.8 µM (inactive) | 51.8 µM (inactive) | 14.8 µM (inactive) | 55.5 µM (inactive) | 75.5 µM (inactive) | 32 µM (inactive) | 25.5 µM (inactive) | 23.5 µM (inactive) | 81.3 µM (inactive) | 20.9 µM (inactive) | 17.2 µM (inactive) | 31.3 µM (inactive) | > 100 µM (inactive) | > 100 µM (inactive) | 39.9 | 59.8 µM (inactive) | > 100 µM (inactive) | – |
| Cc1ccc(NC(=O)/C(=N/NC(=O)C[N+](C)(C)C)c2nc3ccccc3nc2O)cc1 | > 100 µM (inactive) | > 100 µM (inactive) | 51.4 µM (inactive) | > 100 µM (inactive) | > 100 µM (inactive) | > 100 µM (inactive) | > 100 µM (inactive) | > 100 µM (inactive) | > 100 µM (inactive) | > 100 µM (inactive) | 15.7 µM (inactive) | – | > 100 µM (inactive) | > 100 µM (inactive) | 81.1 | > 100 µM (inactive) | > 100 µM (inactive) | > 100 µM (inactive) |
| COC(=O)[C@]12CSCN1C(=O)C(C(C)=O)=NN2C(=O)[C@](OC)(c1ccccc1)C(F)(F)F | > 100 µM (inactive) | > 100 µM (inactive) | > 100 µM (inactive) | > 100 µM (inactive) | 8.17 µM (inactive) | > 100 µM (inactive) | – | > 100 µM (inactive) | > 100 µM (inactive) | > 100 µM (inactive) | > 100 µM (inactive) | > 100 µM (inactive) | > 100 µM (inactive) | > 100 µM (inactive) | > 100 | > 100 µM (inactive) | > 100 µM (inactive) | > 100 µM (inactive) |
| CN1C(c2ccccc2)CC(O)CC1c1ccccc1 (configuration not stated) | > 100 µM (inactive) | > 100 µM (inactive) | > 100 µM (inactive) | > 100 µM (inactive) | > 100 µM (inactive) | > 100 µM (inactive) | > 100 µM (inactive) | > 100 µM (inactive) | > 100 µM (inactive) | > 100 µM (inactive) | > 100 µM (inactive) | > 100 µM (inactive) | > 100 µM (inactive) | > 100 µM (inactive) | > 100 | > 100 µM (inactive) | > 100 µM (inactive) | > 100 µM (inactive) |
| O=C(Nc1ccc(Cl)cc1)/C(Cc1cccc[n+]1[O-])=N\Nc1ccc([N+](=O)[O-])cc1[N+](=O)[O-] | > 100 µM (inactive) | > 100 µM (inactive) | > 100 µM (inactive) | > 100 µM (inactive) | > 100 µM (inactive) | > 100 µM (inactive) | > 100 µM (inactive) | > 100 µM (inactive) | > 100 µM (inactive) | > 100 µM (inactive) | > 100 µM (inactive) | > 100 µM (inactive) | > 100 µM (inactive) | > 100 µM (inactive) | > 100 | > 100 µM (inactive) | > 100 µM (inactive) | > 100 µM (inactive) |
| On1c(-c2ccccc2)c(-c2ccccc2N2CCCC2)c2ccccc21 | > 100 µM (inactive) | > 100 µM (inactive) | > 100 µM (inactive) | > 100 µM (inactive) | > 100 µM (inactive) | > 100 µM (inactive) | > 100 µM (inactive) | > 100 µM (inactive) | > 100 µM (inactive) | > 100 µM (inactive) | > 100 µM (inactive) | > 100 µM (inactive) | > 100 µM (inactive) | > 100 µM (inactive) | > 100 | > 100 µM (inactive) | – | > 100 µM (inactive) |
| CN(C)c1ccc(/C=N/C23CC4CC(CC(C4)C2)C3)cc1 | > 100 µM (inactive) | > 100 µM (inactive) | > 100 µM (inactive) | > 100 µM (inactive) | > 10 µM (inactive) | > 100 µM (inactive) | > 100 µM (inactive) | > 100 µM (inactive) | > 100 µM (inactive) | > 100 µM (inactive) | > 100 µM (inactive) | > 100 µM (inactive) | > 100 µM (inactive) | > 100 µM (inactive) | > 100 | > 100 µM (inactive) | > 100 µM (inactive) | > 100 µM (inactive) |
| Cc1ccc(NC(=O)CC2C(=O)Nc3ccccc3S2(=O)=O)cc1C (configuration not stated) | > 100 µM (inactive) | > 100 µM (inactive) | > 100 µM (inactive) | > 100 µM (inactive) | > 100 µM (inactive) | > 100 µM (inactive) | > 100 µM (inactive) | > 100 µM (inactive) | > 100 µM (inactive) | > 100 µM (inactive) | > 100 µM (inactive) | > 100 µM (inactive) | > 100 µM (inactive) | > 100 µM (inactive) | > 100 | > 100 µM (inactive) | > 100 µM (inactive) | > 10 µM (inactive) |
| C=CC1(CC)/C(=N\O)C(CC)(CC)C(=O)N1O (configuration not stated) | > 100 µM (inactive) | > 100 µM (inactive) | > 100 µM (inactive) | > 100 µM (inactive) | > 100 µM (inactive) | > 100 µM (inactive) | > 100 µM (inactive) | > 100 µM (inactive) | > 100 µM (inactive) | > 100 µM (inactive) | > 100 µM (inactive) | > 100 µM (inactive) | > 100 µM (inactive) | > 100 µM (inactive) | > 100 | > 100 µM (inactive) | > 100 µM (inactive) | – |
| O=c1ccn([C@H]2CSC[C@@H](CO)C2)c(=O)[nH]1 | > 10 µM (inactive) | > 100 µM (inactive) | > 100 µM (inactive) | > 100 µM (inactive) | 56.4 µM (inactive) | > 100 µM (inactive) | > 100 µM (inactive) | > 100 µM (inactive) | > 100 µM (inactive) | > 100 µM (inactive) | > 100 µM (inactive) | > 100 µM (inactive) | > 100 µM (inactive) | > 100 µM (inactive) | > 100 | > 100 µM (inactive) | > 100 µM (inactive) | > 100 µM (inactive) |
| Cc1c(-c2nnc(-c3ccccc3)o2)c(=O)n(-c2ccccc2)n1C | > 100 µM (inactive) | > 100 µM (inactive) | > 100 µM (inactive) | > 100 µM (inactive) | > 100 µM (inactive) | > 100 µM (inactive) | – | > 100 µM (inactive) | > 100 µM (inactive) | > 100 µM (inactive) | > 100 µM (inactive) | > 100 µM (inactive) | > 100 µM (inactive) | > 100 µM (inactive) | > 100 | > 100 µM (inactive) | > 100 µM (inactive) | > 100 µM (inactive) |
| COC(=O)/C(=C/c1ccc(OC)cc1)C(C(=O)O)=C1CCCCC1 | > 100 µM (inactive) | > 100 µM (inactive) | > 100 µM (inactive) | > 100 µM (inactive) | > 100 µM (inactive) | > 100 µM (inactive) | > 100 µM (inactive) | > 100 µM (inactive) | > 100 µM (inactive) | > 100 µM (inactive) | > 100 µM (inactive) | > 100 µM (inactive) | > 100 µM (inactive) | > 100 µM (inactive) | > 100 | > 100 µM (inactive) | > 100 µM (inactive) | – |
| CN1C2(c3ccccc3)c3c(-c4ccccc4)sc(-c4ccccc4)c3C1(c1ccccc1)C1C(=O)N(c3ccccc3)C(=O)C12 (configuration not stated) | > 100 µM (inactive) | > 100 µM (inactive) | > 100 µM (inactive) | > 100 µM (inactive) | > 100 µM (inactive) | > 100 µM (inactive) | > 100 µM (inactive) | – | > 100 µM (inactive) | > 100 µM (inactive) | > 100 µM (inactive) | > 100 µM (inactive) | > 100 µM (inactive) | > 100 µM (inactive) | – | – | > 100 µM (inactive) | > 100 µM (inactive) |
| CN(C)/C=N\c1cc[nH]c(=O)n1 | > 100 µM (inactive) | > 100 µM (inactive) | > 100 µM (inactive) | > 100 µM (inactive) | > 100 µM (inactive) | > 100 µM (inactive) | > 100 µM (inactive) | – | > 100 µM (inactive) | – | > 100 µM (inactive) | > 100 µM (inactive) | > 100 µM (inactive) | > 100 µM (inactive) | > 100 | > 100 µM (inactive) | > 100 µM (inactive) | > 100 µM (inactive) |
| CC(=O)O[C@H]1C(=O)[C@@]2(C)C(C(OC(=O)c3ccccc3)[C@]3(O)CC(OC(=O)C(O)C(NC(=O)c4ccc(C)cc4)c4ccccc4)C(C)=C1C3(C)C)[C@]1(OC(C)=O)CO[C@@H]1C[C@@H]2O (some centres not stated) | 0.0228 µM (active) | < 0.0025 µM (active) | 0.00352 µM (active) | < 0.0025 µM (active) | 0.0045 µM (active) | 0.0112 µM (active) | 0.224 µM (active) | < 0.0025 µM (active) | 3.2 µM (inactive) | 0.00785 µM (active) | – | < 0.0025 µM (active) | 0.112 µM (active) | 0.0588 µM (active) | 0.173 | < 0.0025 µM (active) | 0.826 µM (active) | 0.00573 µM (active) |

Reference: ChEMBL document CHEMBL1201862, “PubChem BioAssay data set” (2004)
